The values below come from publication PMC5924617 (European journal of medicinal chemistry, 2018).

One data set relates to Groβ. The data set can be described thus: poly. The class given is cell-based, human. The settings on record: for inhibition at 10 µM: Homo sapiens, read-out: Inhibitory rate (%) of Groβ expression; for Inhibitory rate (%) of Groβ expression: 10 μM compound, poly(I:C)-induced, hSAECs.
The next data set has as its system ISG56. The data set is described as follows: poly. In kind it is cell-based, human. The settings on record: for inhibition at 10 µM: Homo sapiens, read-out: Inhibitory rate (%) of ISG56 expression; for Inhibitory rate (%) of ISG56 expression: 10 μM compound, poly(I:C)-induced, hSAECs.
Data set [1] deals with innate immune genes including ISG54, ISG56, IL-8 and Groβ. The data set is described as follows: poly. In kind it is cell-based, human. Conditions: for Inhibitory rates on immune genes' expression (all genes, text): 10 μM compound, ISG54, ISG56, IL-8, Groβ in hSAECs; for IC50: Homo sapiens, read-out: IC50 against all innate immune genes (range).
Another data set has as its system IL-8. The data set is described as follows: poly. In kind it is cell-based, human. The settings on record: for inhibition at 10 µM: Homo sapiens, read-out: Inhibitory rate (%) of IL-8 expression.
The test system of a further data set is ISG54. The data set can be described thus: poly. The class given is cell-based, human.
A short description of data set [2]: In vivo pharmacokinetic profile in rats. Conditions: PO 20 mg/kg.
Data set [3] has as its system various receptors and enzymes including kinases such as IKK. The data set is described as follows: Eurofins Cerep panel assays, off-target effects. The settings on record: tested concentration 10 μM; Table S1.
Data set [4] in a line: Daily administration over one month in mice, toxicity. Conditions: compound-treated mice.
[5] abbreviates: 10 μM compound, poly(I:C)-induced, hSAECs.

As to `COC(=O)[C@@H]1CCCN1S(=O)(=O)c1ccc(NCc2ccc(O)cc2)cc1` [Compound 15, Methyl ((4-((4-hydroxybenzyl)amino)phenyl)sulfonyl)-L-prolinate], the inhibition at 10 µM in the data set with Groβ was -12%; in the data set on ISG56, -17%.
For `COC(=O)[C@@H]1CCCN1S(=O)(=O)c1ccc(NC(=O)c2ccc(C(F)(F)F)cc2)cc1` [Compound 14, Methyl ((4-(4-(trifluoromethyl)benzamido)phenyl)sulfonyl)-L-prolinate], the “Inhibitory rates on immune genes' expression (all genes, text)” value (“Inhibitory rates” below) in data set [1] is on record as “completely lost its activity”.
In the case of “5-Chloro-2-methoxy-N-(2-oxo-1,2,3,4-tetrahydroquinolin-6-yl)benzenesulfonamide [Compound 26]”, the “Inhibitory rate (%) of Groβ expression” value in the data set on Groβ is given as 56%. Further, the “Inhibitory rate (%) of ISG56 expression” value in the data set with ISG56 is recorded as 56%.
As to “Methyl ((4-(5-(furan-3-yl)isoxazole-3-carboxamido)phenyl)sulfonyl)-L-prolinate [Compound 12]”, in the data set on IL-8 (setting [5]), the “Inhibitory rate (%) of IL-8 expression” value is −86%. In the data set with Groβ, the “Inhibitory rate (%) of Groβ expression” value is −98%. The “Inhibitory rate (%) of ISG56 expression” value with ISG56 is −93%. In addition, in the data set on ISG54 (setting [5]), the “Inhibitory rate (%) of ISG54 expression” value is reported as −114%.
For `CCCc1cc(C(=O)Nc2ccc(S(=O)(=O)N3CCC[C@H]3C(=O)OC)cc2)no1` [Compound 11, Methyl ((4-(5-propylisoxazole-3-carboxamido)phenyl)sulfonyl)-L-prolinate], the inhibition at 10 µM was -61% in the data set on IL-8; -57% with Groβ; -73% in the data set with ISG56; -62% with ISG54 (Homo sapiens, read-out: Inhibitory rate (%) of ISG54 expression).
For `COC(=O)[C@@H]1CCCN1S(=O)(=O)c1ccc(N(C(=O)c2ccc(F)cc2)C(=O)c2ccc(F)cc2)cc1` [Compound 13, Methyl ((4-(4-fluoro-N-(4-fluorobenzoyl)benzamido)phenyl)sulfonyl)-L-prolinate], the “Inhibitory rates” value in data set [1] is listed as “around 90%”.
In the case of `O=C1CCc2cc(NS(=O)(=O)c3ccc([N+](=O)[O-])cc3)ccc2N1` [Compound 27, 4-Nitro-N-(2-oxo-1,2,3,4-tetrahydroquinolin-6-yl)benzenesulfonamide], the inhibition at 10 µM in the data set on IL-8 was -32%.
For the molecule `Cc1cc(/N=N/c2ccc(N3CCS(=O)(=O)CC3)cc2)c(N)cc1O` [Compound 33, (E)-4-(4-((2-Amino-4-hydroxy-5-methylphenyl)diazenyl)phenyl)thiomorpholine 1,1-dioxide], in data set [1], the “Inhibitory rates” value was “inactive”.
On to `Cc1cc(/N=N/c2ccc3c(c2)CCC(=O)N3)c(N)cc1O` [Compound 28, (E)-6-((2-Amino-4-hydroxy-5-methylphenyl)diazenyl)-3,4-dihydroquinolin-2(1H)-one], for which the IC50 (usually the midpoint of a concentration-inhibition curve) in data set [1] was in the range of 490 to 860 nM. Moreover, in data set [2], the Oral bioavailability entry was “not favorable”.
Regarding `Cc1sc2c(c1C)C(c1ccc(Cl)cc1)=N[C@@H](CC(=O)OC(C)(C)C)c1nnc(C)n1-2` [(+)-JQ1, reference compound], the half-maximal inhibitory concentration (IC50) in data set [1] was 1380 to 3850 nM.
For `Cc1cc(/N=N/c2ccc(S(=O)(=O)NC3CCCC3)cc2)c(N)cc1O` [Compound 35, (E)-4-((2-Amino-4-hydroxy-5-methylphenyl)diazenyl)-N-cyclopentylbenzenesulfonamide], in data set [1], the half-inhibitory concentration (IC50) was 490 to 860 nM. Also, the Off-target effects result in data set [3] was “No significant off-target effects”. For the same molecule, the Oral bioavailability result in data set [2] is given as “not favorable”. Besides, the “Effects on hepatic, renal or pulmonary tissues, histological examination” value in data set [4] was “No discernable effects”.
